Experimental data published in US4939132A, “Novel 5-alkylsulfonylsalicylanilides and microbiocidal compositions for controlling the growth of microorganisms” (The Research Foundation of State University of New York, priority 1985, dated 1990).
Values after ≈ are worked out from the molar mass of the structure shown. Read-outs that look alike come from different tables or passages of the source.

Legend:
[1] = system: A. viscosus; assay: Tube dilution assay (Macro-Broth Dilution Method), A. viscosus; assay type: cell-based; conditions: Actinomyces viscosus, read-out: Minimal Inhibitory Concentration
Description: (§1) Various compositions prepared in accord with the above examples were tested in vitro for minimal concentration to inhibit or kill organisms in comparison to prior art compounds. The test used is set forth in detail in Manual of Clinical Microbiology, third edition, pages 456-475 (Macro-BrothDilution Method), 1980, American society for microbiology.
(§2) In the test procedure serial dilutions of the antimicrobic compound are innoculated with the organism to be inhibited and incubated. The minimum inhibitory concentration (MIC) is the lowest concentration of antimicrobic compound that is achieved without visible growth of the organism. The test method comprises preparing a stock solution of antimicrobic compound and diluting it in a Meuller-Hinton broth. A series of sterile 13 by 100 mm, cotton-plugged, test tubes are set out wherein 2 ml of the broth diluted antimicrobic solution (working solution) is added to the first tube and to each remaining tube is added 1.0 ml of non-antimicrobic containing broth. 1.0 ml of working solution from the first tube is transferred to the second tube and thoroughly mixed therewith. Thereafter, 1.0 ml of the mixed solution is transferred to the third tube and mixed with the process continuing through the dilution steps desired. The tubes are then incubated at 35° C. for 16 to 20 hours. […] Various antimicrobic compounds designated (a)-(i) were tested for minimum inhibitory concentration in accord with the above procedure. Compounds (a)-(e) correspond to compounds (a)-(e) of example 9. Compounds (f)-(i) are as follow s: (f) 5-n -octylsulfonyl-4'-nitrosalicylanilide; (g) 5-n-decylsulfony-4'-bromosalicylanilide; (h) 5-n-hexylsulfonyl-4'-bromosalicylanilide; and, (i) 5-n-dodecylsulfonyl-4'-trifluoromethyl salicylanilide.

[2] = system: S. mutans; assay: Tube dilution assay (Macro-Broth Dilution Method), S. mutans; assay type: cell-based; conditions: Streptococcus mutans, read-out: Minimal Inhibitory Concentration
Description: as §1, §2

[3] = system: S. epidermidis; assay: Tube dilution assay (Macro-Broth Dilution Method), S. epidermidis; assay type: cell-based; conditions: Staphylococcus epidermidis, read-out: Minimal Inhibitory Concentration
Description: as §1, §2

[4] = system: S. pyogenes; assay: Tube dilution assay (Macro-Broth Dilution Method), S. pyogenes; assay type: cell-based; conditions: Streptococcus pyogenes, read-out: Minimal Inhibitory Concentration
Description: as §1, §2

[5] = system: S. aureus; assay: Tube dilution assay (Macro-Broth Dilution Method), S. aureus; assay type: cell-based; conditions: Staphylococcus aureus, Mueller-Hinton broth, 35° C., 16 to 20 hours, read-out: Minimal Inhibitory Concentration
Description: as §1, §2

[6] = system: S. mutans; assay: In vitro plaque growth inhibition (bovine enamel slabs), S. mutans; assay type: cell-based, Streptococcus mutans; conditions: for Total Growth ID50 (50% growth inhibition dosage): 2 min contact, about 24 h incubation, anaerobic
Description: (§3) Various compositions prepared in accord with the above examples were tested in vitro for plaque inhibition in comparison with prior art compounds. The test used is set forth in detail in Comparison of Antiplaque Agents Using an In Vitro Assay Reflecting Oral Conditions by R. T. Evans et al, Journal of Dental Research, June 1977.
(§4) In summary incisor teeth from bovine mandibles, obtained immediately after slaughter, are cut into 4×8 mm enamel slabs and sterilized in a 0.15M NaCl solution buffered at a pH of 7.5 with 0.02M sodium phosphate (PBS soln). Before use the slabs are coated with sterile saliva and then rinsed twice in sterile PBS. The slabs are then placed in small plastic petri dishes containing various concentrations of the compositions to be tested. The test solution used in accordance is a solution of the test compound in a mixture of 20% by volume of ethanol, 40% by volume of propylene glycol and 40% by volume of a pH 8 aqueous buffer solution containing mono and di sodium phosphates. The slabs are left in the solution of the test compound for two minutes and then rinsed in sterile PBS solution. After rinsing, each slab is placed in a 10×75 mm cotton stoppered glass culture tube containing 1 ml of sucrose-broth culture medium which is then innoculated with a 24 hour culture of the desired microorganism standardized to an optical density (OD)540 of 0.75 for A. viscosus and S. mutans. […] of the inoculation medium is used. A. viscosus is incubated under aerobic conditions and the S. mutans is incubated under anaerobic conditions (5% CO2 and 95% H2). After incubation for about 24 hours the nonadherent organisms are removed and the tube is rinsed twice with 0.5 ml of PBS and the washings combined with the nonadherent organisms.
(§5) The tooth slabs are then transferred to 1 ml of 0.1 N NaOH and 1 ml of 0.1N NaOH is also added to the glass culture tubes. The slabs and tubes are then sonically agitated, if necessary to suspend the adherent organisms. The optical density of each of the three fractions is then measured on a spectophotometer. The tests are repeated with varying concentrations of the compositions being tested until growth inhibition curves can be developed. The 50% growth inhibition dosages (ID50) are then determined with a reliability of +or -80% or better. The compounds tested are samples (a)-(e) as follows: (a) tribromosalan; (b) 5-n-decanoyl-4'-nitrosalicylanilide; (c) 5-n-decylsulfonyl-4'-nitro-salicylanilide; (d) 5-n-decylsulfonyl-4'-trifluoromethyl-salicylanilide; and, (e) 5-n-decylsulfonyl-3'-trifluoromethyl-salicylanilide.

[7] = system: A. viscosus; assay: In vitro plaque growth inhibition (bovine enamel slabs), A. viscosus; assay type: cell-based, Actinomyces viscosus; conditions: for Total Growth ID50 (50% growth inhibition dosage): 2 min contact, about 24 h incubation, aerobic
Description: as §3, §4, §5

[8] = system: man; conditions: in man; cited from earlier work
[9] = Acute oral toxicity, single dose; assay type: in vivo; conditions: rat, in vivo; single dose oral route, Sprague-Dawley white rats
Description: (§6) Twelve female white rats averaging 250-300 grams in weight were fasted overnight and divided into three groups of four animals each. In one group each animal received, by gavage tube, 4 ml of an aqueous solution of 1% methylcellulose, the drug delivery vehicle. This group was the control group. The remaining two groups received doses of 750 and 2500 mg/kg respectively of 5-n-decylsulfonyl-4'-trifluoromethyl-salicylanilide in 4-ml aqueous 1% methyl cellulose suspension.
(§7) Within the first week following this single dose only one animal died.
(§8) An autopsy was performed and the cause of death was attributed to a punctured thoracic cavity during administration of the drug.

[10] = system: white rats; assay: Acute oral toxicity, single dose; assay type: in vivo; conditions: 2,500 mg/kg dose group, eighth day; attributed to a punctured thoracic cavity during administration
Description: as §6, §7, §8

[11] = A. viscosus, Mueller-Hinton broth, 35° C., 16 to 20 hours
[12] = S. mutans, Mueller-Hinton broth, 35° C., 16 to 20 hours
[13] = S. epidermidis, Mueller-Hinton broth, 35° C., 16 to 20 hours
[14] = S. pyogenes, Mueller-Hinton broth, 35° C., 16 to 20 hours

| Compound | MIC [1, 11] [µg/mL] | MIC [2, 12] [µg/mL] | MIC [3, 13] [µg/mL] | MIC [4, 14] [µg/mL] | MIC [5] [µg/mL] | Total Growth ID50 (50% growth inhibition dosage) [6] | Maximum % Inhibition ([6]; at 0.2%) [%] | Total Growth ID50 (50% growth inhibition dosage) [7] | Maximum % Inhibition ([7]; at 0.2%) [%] | Maximum % Inhibition ([6]; at 0.1%) [%] | Maximum % Inhibition ([7]; at 0.1%) [%] | allergic reactions [8] | MIC [1] [µg/mL] | MIC [2] [µg/mL] | MIC [3] [µg/mL] | MIC [4] [µg/mL] | LD50 [9] [mg/kg] | deaths [10] |
| --- | --- | --- | --- | --- | --- | --- | --- | --- | --- | --- | --- | --- | --- | --- | --- | --- | --- | --- |
| CCCCCCCCS(=O)(=O)c1ccc(O)c(C(=O)Nc2ccc([N+](=O)[O-])cc2)c1 [(f), 5-n-octylsulfonyl-4'-nitrosalicylanilide] | 1 (≈ 2.3 µM) | 0.5 (≈ 1.15 µM) | 5 (≈ 11.5 µM) | 5 (≈ 11.5 µM) | 5 (≈ 11.5 µM) |  |  |  |  |  |  |  |  |  |  |  |  |  |
| CCCCCCCCCC(=O)c1ccc(O)c(C(=O)Nc2ccc([N+](=O)[O-])cc2)c1 [(b), 5-n-decanoyl-4'-nitrosalicylanilide, reference compound] | 0.05 (≈ 0.121 µM) | 5 (≈ 12.1 µM) | 0.1 (≈ 0.242 µM) | 0.1 (≈ 0.242 µM) | 0.1 (≈ 0.242 µM) | 2.3 × 10^-2 | 59 | 1.1 × 10^-4 | 90 |  |  |  |  |  |  |  |  |  |
| CCCCCCCCCCS(=O)(=O)c1ccc(O)c(C(=O)Nc2cccc(C(F)(F)F)c2)c1 [(e), 5-n-decylsulfonyl-3'-trifluoromethyl-salicylanilide] | 0.5 (≈ 1.03 µM) | 5 (≈ 10.3 µM) | 0.5 (≈ 1.03 µM) | 0.5 (≈ 1.03 µM) | 20 (≈ 41.2 µM) | 2.2 × 10^-3 |  | 6.8 × 10^-4 |  | 47 | 83 |  |  |  |  |  |  |  |
| CCCCCCCCCCS(=O)(=O)c1ccc(O)c(C(=O)Nc2ccc([N+](=O)[O-])cc2)c1 [(c), 5-n-decylsulfonyl-4'-nitro-salicylanilide] | 0.5 (≈ 1.08 µM) | 0.5 (≈ 1.08 µM) | 0.5 (≈ 1.08 µM) | 0.5 (≈ 1.08 µM) | 0.5 (≈ 1.08 µM) | 1.9 × 10^-4 | 80 | 2.3 × 10^-4 | 93 |  |  |  |  |  |  |  |  |  |
| tetrachlorosalicylanilide |  |  |  |  |  |  |  |  |  |  |  | has been shown to produce allergic reactions in man |  |  |  |  |  |  |
| CCCCCCCCCCCCS(=O)(=O)c1ccc(O)c(C(=O)Nc2ccc(C(F)(F)F)cc2)c1 [(i), 5-n-dodecylsulfonyl-4'-trifluoromethyl salicylanilide] | 0.05 (≈ 0.0973 µM) |  | 0.1 (≈ 0.195 µM) | 0.5 (≈ 0.973 µM) | 0.5 (≈ 0.973 µM) |  |  |  |  |  |  |  |  |  |  |  |  |  |
| CCCCCCS(=O)(=O)c1ccc(O)c(C(=O)Nc2ccc(Br)cc2)c1 [(h), 5-n-hexylsulfonyl-4'-bromosalicylanilide] | 5 (≈ 11.4 µM) |  | 10 (≈ 22.7 µM) | 5 (≈ 11.4 µM) | 5 (≈ 11.4 µM) |  |  |  |  |  |  |  |  |  |  |  |  |  |
| O=C(Nc1ccc(Br)cc1)c1cc(Br)cc(Br)c1O [(a), tribromosalan, reference compound] |  |  |  |  | 1 (≈ 2.22 µM) | 1.2 × 10^-7 | 46 | 8.8 × 10^-4 | 53 |  |  |  | 0.5 (≈ 1.11 µM) | 1 (≈ 2.22 µM) | 0.5 (≈ 1.11 µM) | 0.5 (≈ 1.11 µM) |  |  |
| CCCCCCCCCCS(=O)(=O)c1ccc(O)c(C(=O)Nc2ccc(Br)cc2)c1 [(g), 5-n-decylsulfony-4'-bromosalicylanilide] | 0.5 (≈ 1.01 µM) | 1 (≈ 2.01 µM) | 0.5 (≈ 1.01 µM) | 0.5 (≈ 1.01 µM) | 5 (≈ 10.1 µM) |  |  |  |  |  |  |  |  |  |  |  |  |  |
| CCCCCCCCCCS(=O)(=O)c1ccc(O)c(C(=O)Nc2ccc(C(F)(F)F)cc2)c1 [(d), 5-n-decylsulfonyl-4'-trifluoromethyl-salicylanilide] | 0.1 (≈ 0.206 µM) | 0.5 (≈ 1.03 µM) | 0.1 (≈ 0.206 µM) | 0.5 (≈ 1.03 µM) | 0.5 (≈ 1.03 µM) | 1.9 × 10^-3 | 76 | 0.9 × 10^-4 | 95 |  |  |  |  |  |  |  | > 2500 | a second animal died |
